Assay results taken from ChEMBL document CHEMBL5724914, “Linking interpersonal differences in gut microbiota composition and drug biotransformation activity” (2024).

Key:
[1] = human gut metagenome, 24 h, 2 µM
[2] = human gut metagenome, 24 h, 2 µM; remark: listed apart in the source
[3] = (§1) The drug is tested on WLS-370 corresponding to human gut metagenome with ENA study accession number: PRJEB37062 and ENA sample accession number: ERS12561793 for biotransformation under anaerobic condition. The drug concentrations were measured over 9 timepoints collected between 0 and 24 hours of incubation by liquid-chromatography-coupled mass spectrometry (LC–MS); conditions: 2 µM
[4] = as §1, with “Z-016” for “WLS-370”, “mouse” for “human”, “ERS12561815” for “ERS12561793”; conditions: 2 µM
[5] = as §1, with “WLS-090” for “WLS-370”, “ERS12561753” for “ERS12561793”; conditions: 2 µM
[6] = as §1, with “WLS-220” for “WLS-370”, “ERS12561769” for “ERS12561793”; conditions: 2 µM
[7] = human gut metagenome, 24 h, 2 µM; remark: listed apart in the source
[8] = human gut metagenome, 24 h, 2 µM; remark: listed apart in the source
[9] = as §1, with “Z-013” for “WLS-370”, “rabbit” for “human”, “ERS12561813” for “ERS12561793”; conditions: 2 µM
[10] = human gut metagenome, 24 h, 2 µM; remark: listed apart in the source
[11] = as §1, with “Z-003” for “WLS-370”, “pig” for “human”, “ERS12561803” for “ERS12561793”; conditions: 2 µM
[12] = as §1, with “Z-018” for “WLS-370”, “pig” for “human”, “ERS12561817” for “ERS12561793”; conditions: 2 µM
[13] = human gut metagenome, 24 h, 2 µM; remark: listed apart in the source
[14] = human gut metagenome, 24 h, 2 µM; remark: listed apart in the source
[15] = as §1, with “Z-020” for “WLS-370”, “rabbit” for “human”, “ERS12561819” for “ERS12561793”; conditions: 2 µM
[16] = as §1, with “Z-019” for “WLS-370”, “rat” for “human”, “ERS12561818” for “ERS12561793”; conditions: 2 µM
[17] = human gut metagenome, 24 h, 2 µM; remark: listed apart in the source
[18] = human gut metagenome, 24 h, 2 µM; remark: listed apart in the source
[19] = human gut metagenome, 24 h, 2 µM; remark: listed apart in the source
[20] = as §1, with “WLS-027” for “WLS-370”, “ERS12561744” for “ERS12561793”; conditions: 2 µM

Measured: Bacterial Biotransformation
Note: call rule not given here.

CN1CCC(OC(c2ccccc2)c2ccccc2)CC1
Compound metabolized: [2] | [3] | [5] | [6] | [12]
Compound NOT metabolized: all other assays above

CC1=C(CC(=O)O)c2cc(F)ccc2/C1=C\c1ccc([S+](C)[O-])cc1 (centres undefined)
Compound NOT metabolized: [4] | [9] | [11] | [15] | [16] | [19]
Compound metabolized: all other assays above

CCOC(=O)[C@H](CCc1ccccc1)N[C@@H](C)C(=O)N1Cc2ccccc2C[C@H]1C(=O)O
Compound NOT metabolized: [4] | [9] | [12] | [14] | [15] | [16] | [17] | [19]
Compound metabolized: all other assays above

CCN1CCCC1CNC(=O)c1cc(S(=O)(=O)CC)c(N)cc1OC (centres undefined) [AMISULPRIDE]
Compound metabolized: [5] | [11] | [18]
Compound NOT metabolized: all other assays above

CC(C)NCC(O)COc1ccc(CC(N)=O)cc1 (centres undefined) [ATENOLOL]
Compound metabolized: [1] | [5] | [7] | [17] | [18]
Compound NOT metabolized: all other assays above

CC(=O)OCC(=O)[C@@]1(OC(C)=O)[C@@H](C)C[C@H]2[C@@H]3C[C@H](F)C4=CC(=O)C=C[C@]4(C)[C@@]3(F)[C@@H](O)C[C@@]21C [DIFLORASONE DIACETATE]
Compound NOT metabolized: [11] | [16]
Compound metabolized: all other assays above

C#C[C@]1(OC(C)=O)CC[C@H]2[C@@H]3CCC4=C[C@@H](OC(C)=O)CC[C@@H]4[C@H]3CC[C@@]21C [ETHYNODIOL DIACETATE]
Compound NOT metabolized: [16]
not listed: [20]
Compound metabolized: all other assays above
